The values below come from US8080582B2, “Derivatives of 8-epiblechnic acid and their effects on down-regulation of endothelin (ETA) receptor mRNA” (ScinoPharm Taiwan Ltd., priority 2008, dated 2011).

What all share (assay type): cell-based
For one test, the system named is ETAR protein expression. As to the kind of experiment: Western blot of ETAR protein expression in vascular smooth muscle cells. The settings on record: 100 μg/ml, 48 hrs. On the procedure: The smooth muscle cells (5×10^5 cells in 35 mm culture dish) were treated with Sal-B and its analogs for 48 hrs, and then a proteinase inhibitor solution was used to collect proteins from the cells.
The protein concentrations in the samples were calculated by using BSA as the standards to construct a standard curve. After mixing Bradford Protein assay reagent evenly with the standards or the samples, the OD595 absorption values were measured. Standard curve was constructed by plotting OD595 values of the BSA standards versus their concentrations. The protein concentrations of the samples were calculated from the standard curve.
Bio-Rad's Mini-Protean III Dual Slab Cell instrument was used. A 12% polyacrylamide separating gel solution was prepared and placed into a electrophoretic gel preparation device. Deionized water was added to flat the surface of the separating gel solution, and the water was poured off after the gel had coagulated. A stacking gel solution containing 5% polyacrylamide was added and then a comb was inserted. The comb was removed after the stacking gel had coagulated, and the gel was placed into an upright electrophoresis tank. A suitable amount of running buffer was added, and then the protein samples were loaded into the wells of stacking gel layer. […]
A general note: Immunoblotting shows a protein as a band on a membrane.

The next test concerns ETAR mRNA expression. As to the kind of experiment: Real-time quantitative RT-PCR of ETAR mRNA in smooth muscle cells (A10). The settings on record: vascular smooth muscle cells, 100 μg/ml, 48 hrs. On the procedure: Extraction of cellular RNA: Subculturing smooth muscle cells to 100-mm culture dishes. After the cells had filled the culture dishes, Sal-B and its analogs were added to treat the cells for 48 hrs. After that, 1×PBS solutions were added to wash the cells three times. After adding 1 ml TRIzol, the cells were scraped off and placed in 1.5 ml micro-centrifuge tubes. Following the addition of 0.2 ml chloroform to each tube, the tubes were shaken, left at room temperature for 3 min., and run in a centrifuge at 12,000 rpm for 15 min. The supernatant liquid was removed and the cells placed in new micro-centrifuge tubes. After adding an amount of isopropyl alcohol equivalent to one-half of the volume of the supernatant liquid, and mixing until homogeneous, the samples were allowed to stand at room temperature for 10 min. The supernatant liquid was removed after centrifugation at 12,000 rpm for 10 min. 1 ml 70% alcohol was added to wash out salts, followed by centrifugation for 5 min. and removal of supernatant liquid. The samples were dissolved in 50 μl DEPC-H2O after drying.
(1) cDNA synthesis: 1 μl Random hexamer primer (20 μM) and 1 μl dNTP(10 mm) were added to 3 μg RNA, which was allowed to react at 65° C. for 5 min., and then placed on ice promptly. After the addition of 2 μl 10× reaction buffer, 0.5 μl RNaseOUT (40 unit/μl) and 1 μl SuperScript III RT (200 unit/μl), the solution was mixed until homogeneous, and allowed to react at 50° C. for 50 min. After that, the mixture was heated to 85° C. for 5 min. to terminate the enzymatic reaction. The samples were preserved at −70° C. for later use.
(2) PCR quantitative analysis: After adding 7.5 μl PCR primer mix (400 nm each) and 15 μl SYBR Green dye reagent to the 7.5 μl cDNA template, the solution was placed in Bio-Rad's iCycler for PCR reaction. The resulting data was inputted into Gene Expression Analysis for iCycler iQ Real-Time PCR Detection System for quantitative analysis of gene expression.
Furthermore, after treating vascular smooth muscle cells with 100 μg/ml of either Sal-B or EBA for 48 hrs, the identical concentrations of cellular whole RNA were sampled for the synthesis of cDNA by using reverse transcriptase. The PCR method was employed to determine the amounts of endothelin receptor mRNA expression. […] For the analysis of ETAR mRNA expression by using the real-time PCR method, vascular smooth muscle cells at full confluence 100-mm culture dishes were treated with 100 μg/ml of either Sal-B or EBA for 48 hrs. The identical concentrations of cellular whole RNA were sampled for the synthesis of cDNA by using reverse transcriptase. The real-time PCR method was used to compare the amounts of ETAR mRNA expression.
The different analogs, compounds A to F, had different effects on ETAR mRNA expression. The control group represented treating smooth muscle cells (A10) with DMSO, and the positive control group represented treating the cells with Sal-B. The smooth muscle cells were treated with 0.2 mM Sal-B and compounds A to F for 48 hrs. The identical concentrations of cellular RNA were sampled for the synthesis of cDNA by using reverse transcriptase. The real-time PCR method was employed to determine the amounts of ETAR mRNA expression. Compared with the control group, compound B had the least effect on down-regulating ETAR mRNA expression, as approximately 50% of the ETAR mRNA remained after the treatment. […]

Test [1] concerns ETAR gene expression in PC-3 cells. As to the kind of experiment: PCR of ETAR gene expression in PC-3 cancer cells. The following applies: 48 hrs. On the procedure:
PC-3 and MCF-7 cancer cells were treated with Sal-B and EBA for 48 hrs, and the identical concentrations of cellular whole RNA were sampled for the synthesis of cDNA by using reverse transcriptase. The PCR method was then used to compare the amounts of endothelin receptor mRNA expression. While the PC-3 cells were treated with either Sal-B or EBA, its ETAR gene expression was not reduced.

On to `O=C(/C=C/c1ccc(O)c2c1[C@H](C(=O)O[C@H](Cc1ccc(O)c(O)c1)C(=O)[O-])[C@@H](c1ccc(O)c(O)c1)O2)O[C@H](Cc1ccc(O)c(O)c1)C(=O)[O-].[Mg+2]` [Sal-B, magnesium lithospermate B], for which the “ETAR protein expression compared with control” value with ETAR protein expression is “significantly reduced”. The “ETAR mRNA expression, % of that in the control” value in the test with ETAR mRNA expression is “approximately 27%”. The ETAR gene expression entry in test [1] is given as “not reduced”.
Take epiblechnic acid [EBA]: the “ETAR protein expression compared with control” value in the test on ETAR protein expression is given as “significantly reduced”. In addition, the “ETAR mRNA expression, % of that in the control” value with ETAR mRNA expression is “roughly 51%”. In test [1], the ETAR gene expression entry is “not reduced”.
